Earlier results, collected in publication PMC8453635, “Piperidine Azasugars Bearing Lipophilic Chains: Stereoselective Synthesis and Biological Activity as Inhibitors of Glucocerebrosidase (GCase)” (The Journal of Organic Chemistry, 2021).
Positions count from the first letter of the chain named. Like-named read-outs stand apart in the source and are kept apart here.

Tests used:
[1] = molecular target: T1, GCase (Homo sapiens, UniProt P04062); settings: cited from earlier work; for IC50: human leukocytes, same experimental protocol and substrate concentration
T1 construct: screened toward GCase in leukocytes isolated from healthy donors (controls); from tissue; host or cells: leukocytes isolated from healthy donors, disrupted by sonication
T1 sequence (P04062 40-536): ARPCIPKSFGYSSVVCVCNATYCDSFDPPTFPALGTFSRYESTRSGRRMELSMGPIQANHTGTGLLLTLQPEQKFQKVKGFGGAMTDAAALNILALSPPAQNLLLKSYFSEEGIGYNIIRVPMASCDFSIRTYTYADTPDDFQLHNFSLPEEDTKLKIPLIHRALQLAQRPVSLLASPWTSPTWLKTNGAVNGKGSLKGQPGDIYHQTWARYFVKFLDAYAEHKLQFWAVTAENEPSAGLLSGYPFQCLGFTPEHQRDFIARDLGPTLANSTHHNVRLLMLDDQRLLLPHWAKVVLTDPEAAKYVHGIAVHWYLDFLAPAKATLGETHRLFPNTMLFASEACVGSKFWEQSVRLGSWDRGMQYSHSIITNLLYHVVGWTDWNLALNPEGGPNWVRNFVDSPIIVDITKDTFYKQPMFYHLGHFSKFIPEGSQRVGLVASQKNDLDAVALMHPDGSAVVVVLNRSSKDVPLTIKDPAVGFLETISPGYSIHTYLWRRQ

[2] = tested on: N370S mutant enzyme in fibroblasts; settings: cited from earlier work
[3] = tested on: wild-type fibroblasts; design: method as in PMID 32200326; settings: cited from earlier work
[4] = molecular target: T2, GCase in fibroblasts bearing the N370S/RecNcil mutation (Homo sapiens, UniProt P04062, A495P/L483P/N409S); design: method as in PMID 30996807, PMID 32200326; settings: 100 μM; cited from earlier work
T2 construct: fibroblasts derived from Gaucher patients bearing the N370S/RecNcil and L444P/L444P mutations; host or cells: fibroblasts from Gaucher disease patients, N370S/RecNcil
T2 sequence (P04062 40-536 N409S): T1 sequence (P04062 40-536) with N370S

[5] = molecular target: T3, GCase in fibroblasts bearing the L444P/L444P mutations (Homo sapiens, UniProt P04062, L483P); design: method as in PMID 30996807, PMID 32200326; settings: homozygous L444P mutation, 100 μM; cited from earlier work
T3 construct: fibroblasts derived from Gaucher patients bearing the N370S/RecNcil and L444P/L444P mutations; host or cells: fibroblasts from Gaucher disease patients, L444P/L444P
T3 sequence (P04062 40-536 L483P): T1 sequence (P04062 40-536) with L444P

[6] = molecular target: lysosomal GCase; settings: toward GCase; cited from earlier work
[7] = tested on: L444P variant; design: method as in PMID 12434014; settings: cited from earlier work

CCCCCCCC[C@@H]1NC[C@@H](O)[C@@H](O)[C@@H]1O [compound 11]
IC50 ([1]; ref 16 and 17): 93.5 ± 5.3 µM

CCCCCCCCN1C[C@@H](O)C(O)[C@H](O)C1 [compound 9]
GCase inhibition [%] ([1]; human leukocytes extracts incubated with azasugars (1 mM), previously reported compounds): 98%
IC50 [1]: 30 ± 1 µM
activity increase ([2]; N370S-mutated fibroblasts at 100 μM): 1.25 fold
PC activity (enzyme activity enhancement) ([3]; 50 μM): 1.5 fold

CCCCCCCC[C@H]1NC[C@@H](O)[C@@H](O)[C@@H]1O [compound 12]
enzyme recovery [4]: 1.9 fold
enzyme recovery [5]: 1.80 fold
IC50 ([1]; ref 16 and 17): 29.3 ± 1.8 µM
PC activity (enzyme activity enhancement) ([3]; 100 μM): 1.4 fold

CCCCCCCCC[C@H]1NC[C@@H](O)[C@H](O)[C@H]1O [compound 7, α-1-C-nonyl-DIX]
IC50 [6]: 0.0068 µM
enzyme activity increase ([2]; N370S mutated fibroblasts at 10 nM): 1.8 fold

CCCCCCCCCN1C[C@H](O)[C@@H](O)[C@H](O)[C@H]1CO [compound 5, N-nonyl-DNJ]
enhancement of intracellular activity of the L444P variant [7]: did not enhance
increase in the activity of the N370S mutant enzyme ([2]; fibroblasts, 10 μM concentration): twofold increase
